Assays:
[1] = compound: O=[As]([O-])(O)O.[K+] [potassium arsenate]; experiment: thermal stability z-score vs DMSO; higher = more thermally stabilized by treatment; settings: HeLa; arsenate concentration 1 mM
Protocol: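 Cellular thermal proteome profiling in HeLa cells treated with 1 mM arsenate for 1 h (DMSO pretreatment), heated to ten temperatures (37-66.3 °C). Soluble protein was quantified by TMT mass spectrometry relative to DMSO controls; the thermal stability score was transformed to a z-score; mean of n = 3 experiments.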

[2] = compound: NC(=O)CCCCC1CCSS1 [lipoamide]; experiment: as above; settings: HeLa, lipoamide concentration 100 µM
Protocol: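 Cellular thermal proteome profiling in HeLa cells. Cells were treated with 100 µM lipoamide for 1 h, with or without 1 mM arsenate for a further 1 h, then heated to ten temperatures (37-66.3 °C), and soluble protein was quantified by TMT mass spectrometry relative to 0.1% DMSO controls. The thermal stability score (sum of log2 fold changes minus the abundance score) was transformed to a z-score; mean of n = 3 experiments.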

[3] = arsenate co-treatment: 1 mM arsenate 1 h
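Further: each temperature applied for 3 min, abundance score taken as mean log2 fold change at the two lowest temperatures, z-score obtained by mean subtraction and division by SD.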

UniProt P10909, sequence (P10909 whole entry): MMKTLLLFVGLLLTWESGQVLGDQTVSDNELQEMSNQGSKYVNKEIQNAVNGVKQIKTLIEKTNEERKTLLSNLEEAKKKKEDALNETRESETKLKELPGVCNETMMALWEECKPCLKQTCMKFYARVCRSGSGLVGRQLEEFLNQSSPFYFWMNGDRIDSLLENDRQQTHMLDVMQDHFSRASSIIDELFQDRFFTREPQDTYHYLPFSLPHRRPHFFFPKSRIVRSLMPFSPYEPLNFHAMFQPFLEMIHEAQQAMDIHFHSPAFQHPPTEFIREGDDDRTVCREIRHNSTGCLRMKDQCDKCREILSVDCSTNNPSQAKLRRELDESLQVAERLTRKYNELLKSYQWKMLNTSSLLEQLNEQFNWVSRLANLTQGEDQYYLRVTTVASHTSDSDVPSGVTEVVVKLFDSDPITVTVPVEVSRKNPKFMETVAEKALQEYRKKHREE
UniProt Q9HAW4, sequence (Q9HAW4 whole entry): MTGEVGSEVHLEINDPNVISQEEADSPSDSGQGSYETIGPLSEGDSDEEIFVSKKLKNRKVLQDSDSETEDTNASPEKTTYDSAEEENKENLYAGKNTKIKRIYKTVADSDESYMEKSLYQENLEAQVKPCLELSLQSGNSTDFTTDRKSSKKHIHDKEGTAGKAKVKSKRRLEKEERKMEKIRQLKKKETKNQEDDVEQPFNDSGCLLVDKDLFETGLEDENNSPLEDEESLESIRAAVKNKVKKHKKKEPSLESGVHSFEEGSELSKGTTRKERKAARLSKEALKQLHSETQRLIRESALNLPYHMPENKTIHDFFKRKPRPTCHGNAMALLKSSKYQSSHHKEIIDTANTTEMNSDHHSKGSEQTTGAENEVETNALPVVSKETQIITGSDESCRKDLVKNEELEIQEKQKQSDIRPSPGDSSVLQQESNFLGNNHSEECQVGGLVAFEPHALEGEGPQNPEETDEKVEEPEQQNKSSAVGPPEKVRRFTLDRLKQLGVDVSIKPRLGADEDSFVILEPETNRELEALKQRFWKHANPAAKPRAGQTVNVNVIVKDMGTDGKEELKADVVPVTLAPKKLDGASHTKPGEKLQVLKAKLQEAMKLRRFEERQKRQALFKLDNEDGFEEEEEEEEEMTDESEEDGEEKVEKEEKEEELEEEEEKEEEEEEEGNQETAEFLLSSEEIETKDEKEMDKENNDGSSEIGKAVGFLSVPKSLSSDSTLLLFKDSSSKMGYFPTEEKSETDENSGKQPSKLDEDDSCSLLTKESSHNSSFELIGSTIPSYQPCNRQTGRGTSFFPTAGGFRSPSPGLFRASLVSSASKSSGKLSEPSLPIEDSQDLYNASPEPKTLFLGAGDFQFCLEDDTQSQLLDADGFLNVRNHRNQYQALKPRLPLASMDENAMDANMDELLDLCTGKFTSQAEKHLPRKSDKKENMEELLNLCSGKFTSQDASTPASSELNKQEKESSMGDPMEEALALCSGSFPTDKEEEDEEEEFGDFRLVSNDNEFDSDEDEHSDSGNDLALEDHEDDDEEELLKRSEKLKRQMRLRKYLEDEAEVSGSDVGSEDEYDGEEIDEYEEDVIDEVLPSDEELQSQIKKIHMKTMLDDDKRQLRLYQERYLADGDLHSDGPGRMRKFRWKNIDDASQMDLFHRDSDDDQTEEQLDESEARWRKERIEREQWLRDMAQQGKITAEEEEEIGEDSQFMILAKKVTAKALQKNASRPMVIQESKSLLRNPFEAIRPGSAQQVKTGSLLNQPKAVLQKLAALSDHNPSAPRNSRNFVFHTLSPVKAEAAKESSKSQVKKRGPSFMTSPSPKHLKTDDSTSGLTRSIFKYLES
UniProt Q9H6B4, sequence (Q9H6B4 whole entry): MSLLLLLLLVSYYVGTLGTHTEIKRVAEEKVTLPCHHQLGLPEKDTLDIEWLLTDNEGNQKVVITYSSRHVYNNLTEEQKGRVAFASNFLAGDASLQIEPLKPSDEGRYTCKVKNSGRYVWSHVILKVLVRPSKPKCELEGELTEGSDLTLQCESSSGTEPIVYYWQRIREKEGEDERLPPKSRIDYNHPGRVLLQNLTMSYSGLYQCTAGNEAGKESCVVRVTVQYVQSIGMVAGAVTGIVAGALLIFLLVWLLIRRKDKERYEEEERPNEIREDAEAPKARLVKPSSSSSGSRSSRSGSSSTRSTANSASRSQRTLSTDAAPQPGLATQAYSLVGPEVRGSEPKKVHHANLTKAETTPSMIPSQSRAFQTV
UniProt Q99439, sequence (Q99439 whole entry): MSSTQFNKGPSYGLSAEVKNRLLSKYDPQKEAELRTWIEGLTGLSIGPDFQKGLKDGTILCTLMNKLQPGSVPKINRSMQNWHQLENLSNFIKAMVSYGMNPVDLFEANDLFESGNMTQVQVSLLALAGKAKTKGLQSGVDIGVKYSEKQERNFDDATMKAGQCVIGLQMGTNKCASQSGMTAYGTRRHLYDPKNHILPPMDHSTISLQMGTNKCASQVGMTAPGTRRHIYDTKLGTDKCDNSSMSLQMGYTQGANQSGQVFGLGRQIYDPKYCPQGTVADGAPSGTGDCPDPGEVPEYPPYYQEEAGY
UniProt Q96KA5, sequence (Q96KA5 whole entry): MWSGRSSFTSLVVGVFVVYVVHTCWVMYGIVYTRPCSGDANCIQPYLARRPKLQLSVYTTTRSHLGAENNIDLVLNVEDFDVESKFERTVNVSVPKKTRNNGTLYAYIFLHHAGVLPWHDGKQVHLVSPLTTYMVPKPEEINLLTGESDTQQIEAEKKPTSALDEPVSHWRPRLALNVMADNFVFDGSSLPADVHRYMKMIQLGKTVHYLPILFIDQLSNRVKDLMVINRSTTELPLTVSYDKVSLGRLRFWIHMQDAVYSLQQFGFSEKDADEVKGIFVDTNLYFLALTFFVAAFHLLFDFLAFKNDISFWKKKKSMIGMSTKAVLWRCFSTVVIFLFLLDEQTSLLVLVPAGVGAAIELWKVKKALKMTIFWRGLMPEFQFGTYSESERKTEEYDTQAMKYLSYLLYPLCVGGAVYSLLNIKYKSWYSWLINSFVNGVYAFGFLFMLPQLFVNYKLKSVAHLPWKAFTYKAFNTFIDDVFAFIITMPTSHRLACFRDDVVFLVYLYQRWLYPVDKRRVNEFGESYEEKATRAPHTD
UniProt Q5JTJ3, sequence (Q5JTJ3 whole entry): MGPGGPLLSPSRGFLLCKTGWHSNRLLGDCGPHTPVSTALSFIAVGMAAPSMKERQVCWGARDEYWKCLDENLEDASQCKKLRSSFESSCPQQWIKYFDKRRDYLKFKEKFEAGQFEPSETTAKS
UniProt O94985, sequence (O94985 whole entry): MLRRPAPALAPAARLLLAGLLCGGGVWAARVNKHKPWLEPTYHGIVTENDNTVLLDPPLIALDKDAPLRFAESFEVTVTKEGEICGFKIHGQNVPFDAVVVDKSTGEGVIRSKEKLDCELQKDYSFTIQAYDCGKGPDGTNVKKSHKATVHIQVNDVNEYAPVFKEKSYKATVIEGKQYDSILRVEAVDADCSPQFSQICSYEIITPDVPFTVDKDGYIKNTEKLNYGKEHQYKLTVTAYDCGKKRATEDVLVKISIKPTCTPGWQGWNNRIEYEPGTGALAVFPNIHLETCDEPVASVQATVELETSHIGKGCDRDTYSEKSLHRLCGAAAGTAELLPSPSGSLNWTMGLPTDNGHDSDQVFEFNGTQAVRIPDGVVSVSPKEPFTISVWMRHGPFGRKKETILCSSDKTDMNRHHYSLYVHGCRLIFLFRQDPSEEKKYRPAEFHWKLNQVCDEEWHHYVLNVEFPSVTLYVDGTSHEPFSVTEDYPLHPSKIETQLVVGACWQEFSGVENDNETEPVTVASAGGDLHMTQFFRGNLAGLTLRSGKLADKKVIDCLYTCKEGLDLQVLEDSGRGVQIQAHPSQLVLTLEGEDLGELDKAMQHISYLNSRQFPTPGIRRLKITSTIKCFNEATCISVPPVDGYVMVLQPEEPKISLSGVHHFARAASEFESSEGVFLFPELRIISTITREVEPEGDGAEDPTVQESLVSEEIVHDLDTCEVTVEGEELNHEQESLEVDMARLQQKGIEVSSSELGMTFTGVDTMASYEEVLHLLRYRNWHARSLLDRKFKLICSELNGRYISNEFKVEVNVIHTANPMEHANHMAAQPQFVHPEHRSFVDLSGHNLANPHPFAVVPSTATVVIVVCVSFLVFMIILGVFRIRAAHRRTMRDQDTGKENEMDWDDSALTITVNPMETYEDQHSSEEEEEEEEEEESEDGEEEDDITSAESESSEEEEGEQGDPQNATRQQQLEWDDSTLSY
UniProt Q9GZY4, sequence (Q9GZY4 whole entry): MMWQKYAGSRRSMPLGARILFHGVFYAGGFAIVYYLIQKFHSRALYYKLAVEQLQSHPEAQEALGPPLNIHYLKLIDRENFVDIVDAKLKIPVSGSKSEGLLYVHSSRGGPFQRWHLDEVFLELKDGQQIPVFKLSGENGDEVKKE
UniProt O96005, sequence (O96005 whole entry): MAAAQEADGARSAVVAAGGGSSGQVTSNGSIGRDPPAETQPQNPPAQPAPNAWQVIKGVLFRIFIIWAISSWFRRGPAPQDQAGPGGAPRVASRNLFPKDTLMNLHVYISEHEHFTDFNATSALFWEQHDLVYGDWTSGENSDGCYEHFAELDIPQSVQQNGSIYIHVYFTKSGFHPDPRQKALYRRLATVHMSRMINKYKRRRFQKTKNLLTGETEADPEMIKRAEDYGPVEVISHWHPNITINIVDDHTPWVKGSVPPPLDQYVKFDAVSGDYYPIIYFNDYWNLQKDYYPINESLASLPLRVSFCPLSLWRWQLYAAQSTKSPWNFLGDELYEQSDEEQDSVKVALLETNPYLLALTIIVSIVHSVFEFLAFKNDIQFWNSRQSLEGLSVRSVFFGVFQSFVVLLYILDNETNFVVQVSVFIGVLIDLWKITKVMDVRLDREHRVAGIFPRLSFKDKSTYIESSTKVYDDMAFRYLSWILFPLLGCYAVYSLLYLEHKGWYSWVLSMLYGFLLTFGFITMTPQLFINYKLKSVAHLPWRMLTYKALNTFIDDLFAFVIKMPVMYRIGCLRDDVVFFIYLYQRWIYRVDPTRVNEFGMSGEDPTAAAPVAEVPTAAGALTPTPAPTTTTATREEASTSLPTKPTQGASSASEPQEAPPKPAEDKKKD

| Target | thermal stability z-score [1] | thermal stability z-score [2, 3] | thermal stability z-score ([2]; arsenate co-treatment: none) |
| --- | --- | --- | --- |
| CLIC3 (UniProt O95833) | -0.0618 | 0.00456 | 0.0631 |
| CLIC4 (UniProt Q9Y696) | -0.572 | 0.264 | 0.427 |
| CLINT1 (UniProt Q14677) | 1.08 | 0.199 | 0.142 |
| CLIP1 (UniProt P30622) | -0.345 | -0.0952 | 0.0784 |
| CLMP (UniProt Q9H6B4) | -0.738 | 0.616 | 1.03 |
| CLNS1A (UniProt P54105) | -1.75 | 0.733 | 0.695 |
| CLP1 (UniProt Q92989) | -0.0689 | -0.189 | -0.158 |
| CLPB (UniProt Q9H078) | -0.0952 | -0.507 | -0.275 |
| CLPP (UniProt Q16740) | 0.151 | 0.049 | -0.299 |
| CLPTM1 (UniProt O96005) | 0.0364 | -3.11 | -2.81 |
| CLPTM1L (UniProt Q96KA5) | 0.279 | -2.13 | -1.51 |
| CLPX (UniProt O76031) | 0.139 | -0.306 | -0.172 |
| CLSPN (UniProt Q9HAW4) | 1.12 | -0.352 | 0.214 |
| CLSTN1 (UniProt O94985) | 1.06 | -0.443 | 0.255 |
| CLTA (UniProt P09496) | 0.655 | 1.35 | 1.54 |
| CLTB (UniProt P09497) | 0.557 | 1.48 | 1.89 |
| CLTC (UniProt Q00610) | -0.263 | 0.447 | 0.409 |
| CLTCL1 (UniProt P53675) | 0.858 | 0.147 | 0.15 |
| CLU (UniProt P10909) | 0.0163 | -1.81 | -2.08 |
| CLUH (UniProt O75153) | -0.134 | 0.336 | 1.47 |
| CLYBL (UniProt Q8N0X4) | 0.695 | 0.208 | 0.433 |
| CMAS (UniProt Q8NFW8) | -0.438 | -0.0844 | -0.141 |
| CMBL (UniProt Q96DG6) | -0.162 | 0.865 | 0.482 |
| CMC1 (UniProt Q7Z7K0) | 0.65 | 0.741 | -0.328 |
| CMC2 (UniProt Q9NRP2) | 0.218 | 0.275 | 0.104 |
| CMIP (UniProt Q8IY22) | -0.236 | -0.151 | -0.146 |
| CMPK1 (UniProt P30085) | 2.02 | -0.127 | 0.136 |
| CMSS1 (UniProt Q9BQ75) | -2.12 | 0.27 | 0.0303 |

| Target | thermal stability z-score [1] | thermal stability z-score [2, 3] | thermal stability z-score ([2]; arsenate co-treatment: none) |
| --- | --- | --- | --- |
| CMTR1 (UniProt Q8N1G2) | 1.15 | -0.292 | 0.406 |
| CMTR2 (UniProt Q8IYT2) | -0.0808 | 0.107 | 0.13 |
| CNBP (UniProt P62633) | -0.088 | 0.317 | 0.142 |
| CNDP2 (UniProt Q96KP4) | 0.248 | 0.517 | 0.0712 |
| CNN2 (UniProt Q99439) | 0.356 | 0.281 | 0.653 |
| CNNM2 (UniProt Q9H8M5) | -0.152 | 0.397 | 0.656 |
| CNNM3 (UniProt Q8NE01) | -0.561 | -0.728 | 0.192 |
| CNNM4 (UniProt Q6P4Q7) | 0.213 | 0.923 | 0.49 |
| CNOT1 (UniProt A5YKK6) | 1.04 | -0.186 | 0.0688 |
| CNOT2 (UniProt Q9NZN8) | 1.62 | -0.563 | 0.153 |
| CNOT3 (UniProt O75175) | 1.26 | -0.0612 | 0.0363 |
| CNOT4 (UniProt O95628) | 0.494 | -0.171 | -0.00856 |
| CNOT6 (UniProt Q9ULM6) | 0.03 | -0.197 | -0.108 |
| CNOT7 (UniProt Q9UIV1) | 1.32 | -0.248 | 0.895 |
| CNOT10 (UniProt Q9H9A5) | 0.677 | -0.532 | 0.228 |
| CNOT11 (UniProt Q9UKZ1) | 0.0729 | -0.0705 | 0.0824 |
| CNP (UniProt P09543) | -0.287 | 1.14 | 0.855 |
| CNPY3 (UniProt Q9BT09) | -0.0267 | -4.03 | -4.98 |
| CNPY4 (UniProt Q8N129) | 0.532 | -1.84 | -1.57 |
| CNTLN (UniProt Q9NXG0) | -0.0711 | -0.163 | -0.342 |
| COA1 (UniProt Q9GZY4) | 0.234 | 0.229 | 0.587 |
| COA3 (UniProt Q9Y2R0) | 0.126 | 0.463 | 0.725 |
| COA5 (UniProt Q86WW8) | 0.0388 | -0.51 | -0.761 |
| COA6 (UniProt Q5JTJ3) | 0.756 | 1.7 | 1.85 |
| COA7 (UniProt Q96BR5) | -0.364 | 0.203 | 0.0661 |
| COASY (UniProt Q13057) | 0.944 | -0.525 | -0.09 |
| COBL (UniProt O75128) | -0.0126 | 0.182 | 0.154 |
